According to ChEMBL document CHEMBL1150788, “In vitro susceptibility of Sporothrix schenckii to six antifungal agents determined using three different methods” (2007):
Values after ≈ are worked out from the molar mass of the structure shown.

Tests used:
Assay type in all cases: functional
Sporothrix schenckii [1] = experiment: Antifungal activity against Sporothrix schenckii PGAC0016 isolate from cutaneous-lymphatic sporotrichosis patient after 72 hrs by ATB Fungus 2 method
Sporothrix schenckii [2] = experiment: Antifungal activity against Sporothrix schenckii P20825 isolate from cutaneous-lymphatic sporotrichosis patient after 72 hrs by ATB Fungus 2 method
Sporothrix schenckii [3] = experiment: Antifungal activity against Sporothrix schenckii MRSS4 isolate from cutaneous-lymphatic sporotrichosis patient after 72 hrs by Sensititre YeastOne method
Sporothrix schenckii [4] = experiment: Antifungal activity against Sporothrix schenckii P10012 isolate from cutaneous-lymphatic sporotrichosis patient after 72 hrs by Sensititre YeastOne method
Sporothrix schenckii [5] = experiment: Antifungal activity against Sporothrix schenckii P25013 isolate from cutaneous-lymphatic sporotrichosis patient after 72 hrs by Sensititre YeastOne method
Candida parapsilosis [6] = experiment: Antifungal activity against Candida parapsilosis ATCC 22019 […] after 72 hrs by Sensititre YeastOne method; conditions: Lodderomyces parapsilosis, ATCC 22019, 72 h
Candida parapsilosis [7] = experiment: Antifungal activity against Candida parapsilosis ATCC 22019 […] after 72 hrs by modified NCCLS M38-A method; conditions: Lodderomyces parapsilosis, ATCC 22019, 72 h
Sporothrix schenckii [8] = experiment: Antifungal activity against Sporothrix schenckii SSA29 isolate from cutaneous-lymphatic sporotrichosis patient after 72 hrs by ATB Fungus 2 method
Sporothrix schenckii [9] = experiment: Antifungal activity against Sporothrix schenckii P14036 isolate from cutaneous-lymphatic sporotrichosis patient after 72 hrs by ATB Fungus 2 method
Sporothrix schenckii [10] = experiment: Antifungal activity against Sporothrix schenckii P24255 isolate from cutaneous-lymphatic sporotrichosis patient after 72 hrs by ATB Fungus 2 method
Sporothrix schenckii [11] = experiment: Antifungal activity against Sporothrix schenckii PSCC1 isolate from cutaneous-lymphatic sporotrichosis patient after 72 hrs by ATB Fungus 2 method
Sporothrix schenckii [12] = experiment: Antifungal activity against Sporothrix schenckii P25013 isolate from cutaneous-lymphatic sporotrichosis patient after 72 hrs by ATB Fungus 2 method
Sporothrix schenckii [13] = experiment: Antifungal activity against Sporothrix schenckii P30019 isolate from cutaneous-lymphatic sporotrichosis patient after 72 hrs by Sensititre YeastOne method
Sporothrix schenckii [14] = experiment: Antifungal activity against Sporothrix schenckii P24255 isolate from cutaneous-lymphatic sporotrichosis patient after 72 hrs by Sensititre YeastOne method
Sporothrix schenckii [15] = experiment: Antifungal activity against Sporothrix schenckii P0019 isolate from cutaneous-lymphatic sporotrichosis patient after 72 hrs by ATB Fungus 2 method
Sporothrix schenckii [16] = experiment: Antifungal activity against Sporothrix schenckii SSA29 isolate from cutaneous-lymphatic sporotrichosis patient after 72 hrs by Sensititre YeastOne method
Sporothrix schenckii [17] = experiment: Antifungal activity against Sporothrix schenckii P1621 isolate from cutaneous-lymphatic sporotrichosis patient after 72 hrs by Sensititre YeastOne method
Sporothrix schenckii [18] = experiment: Antifungal activity against Sporothrix schenckii P20825 isolate from cutaneous-lymphatic sporotrichosis patient after 72 hrs by Sensititre YeastOne method
Pichia kudriavzevii [19] = experiment: Antifungal activity against Candida krusei ATCC 6258 […] after 72 hrs by ATB Fungus 2 method; conditions: ATCC 6258, 72 h
Pichia kudriavzevii [20] = experiment: Antifungal activity against Candida krusei ATCC 6258 […] after 72 hrs by modified NCCLS M38-A method; conditions: ATCC 6258, 72 h
Sporothrix schenckii [21] = experiment: Antifungal activity against Sporothrix schenckii P30019 isolate from cutaneous-lymphatic sporotrichosis patient after 72 hrs by modified NCCLS M38-A method
Sporothrix schenckii [22] = experiment: Antifungal activity against Sporothrix schenckii P14954 isolate from cutaneous-lymphatic sporotrichosis patient after 72 hrs by ATB Fungus 2 method
Sporothrix schenckii [23] = experiment: Antifungal activity against Sporothrix schenckii P26187 isolate from cutaneous-lymphatic sporotrichosis patient after 72 hrs by ATB Fungus 2 method
Sporothrix schenckii [24] = experiment: Antifungal activity against Sporothrix schenckii P24223 isolate from cutaneous-lymphatic sporotrichosis patient after 72 hrs by ATB Fungus 2 method
Sporothrix schenckii [25] = experiment: Antifungal activity against Sporothrix schenckii P3287 isolate from cutaneous-lymphatic sporotrichosis patient after 72 hrs by ATB Fungus 2 method
Sporothrix schenckii [26] = experiment: Antifungal activity against Sporothrix schenckii P24223 isolate from cutaneous-lymphatic sporotrichosis patient after 72 hrs by Sensititre YeastOne method
Pichia kudriavzevii [27] = experiment: Antifungal activity against Candida krusei ATCC 6258 […] after 72 hrs by Sensititre YeastOne method; conditions: ATCC 6258, 72 h
Candida parapsilosis [28] = experiment: Antifungal activity against Candida parapsilosis ATCC 22019 […] after 72 hrs by ATB Fungus 2 method; conditions: Lodderomyces parapsilosis, ATCC 22019, 72 h
Sporothrix schenckii [29] = experiment: Antifungal activity against Sporothrix schenckii PSCC1 isolate from cutaneous-lymphatic sporotrichosis patient after 72 hrs by Sensititre YeastOne method
Sporothrix schenckii [30] = experiment: Antifungal activity against Sporothrix schenckii isolate from cutaneous-lymphatic sporotrichosis patient after 72 hrs by Sensititre YeastOne method
Sporothrix schenckii [31] = experiment: Antifungal activity against Sporothrix schenckii P26187 isolate from cutaneous-lymphatic sporotrichosis patient after 72 hrs by Sensititre YeastOne method
Sporothrix schenckii [32] = experiment: Antifungal activity against Sporothrix schenckii P14954 isolate from cutaneous-lymphatic sporotrichosis patient after 72 hrs by Sensititre YeastOne method
Sporothrix schenckii [33] = experiment: Antifungal activity against Sporothrix schenckii isolate from cutaneous-lymphatic sporotrichosis patient after 72 hrs by ATB Fungus 2 method
Sporothrix schenckii [34] = experiment: Antifungal activity against Sporothrix schenckii P1621 isolate from cutaneous-lymphatic sporotrichosis patient after 72 hrs by ATB Fungus 2 method
Sporothrix schenckii [35] = experiment: Antifungal activity against Sporothrix schenckii P30019 isolate from cutaneous-lymphatic sporotrichosis patient after 72 hrs by ATB Fungus 2 method
Sporothrix schenckii [36] = experiment: Antifungal activity against Sporothrix schenckii P14036 isolate from cutaneous-lymphatic sporotrichosis patient after 72 hrs by Sensititre YeastOne method
Sporothrix schenckii [37] = experiment: Antifungal activity against Sporothrix schenckii PJRC002 isolate from cutaneous-lymphatic sporotrichosis patient after 72 hrs by Sensititre YeastOne method
Sporothrix schenckii [38] = experiment: Antifungal activity against Sporothrix schenckii P10012 isolate from cutaneous-lymphatic sporotrichosis patient after 72 hrs by ATB Fungus 2 method
Sporothrix schenckii [39] = experiment: Antifungal activity against Sporothrix schenckii P3287 isolate from cutaneous-lymphatic sporotrichosis patient after 72 hrs by Sensititre YeastOne method
Sporothrix schenckii [40] = experiment: Antifungal activity against Sporothrix schenckii MRSS4 isolate from cutaneous-lymphatic sporotrichosis patient after 72 hrs by ATB Fungus 2 method
Sporothrix schenckii [41] = experiment: Antifungal activity against Sporothrix schenckii isolate from cutaneous-lymphatic sporotrichosis patient after 72 hrs by modified NCCLS M38-A method
Sporothrix schenckii [42] = experiment: Antifungal activity against Sporothrix schenckii PJRC002 isolate from cutaneous-lymphatic sporotrichosis patient after 72 hrs by ATB Fungus 2 method
Sporothrix schenckii [43] = experiment: Antifungal activity against Sporothrix schenckii P30915 isolate from cutaneous-lymphatic sporotrichosis patient after 72 hrs by Sensititre YeastOne method
Sporothrix schenckii [44] = experiment: Antifungal activity against Sporothrix schenckii PGAC0016 isolate from cutaneous-lymphatic sporotrichosis patient after 72 hrs by Sensititre YeastOne method
Sporothrix schenckii [45] = experiment: Antifungal activity against Sporothrix schenckii P0019 isolate from cutaneous-lymphatic sporotrichosis patient after 72 hrs by Sensititre YeastOne method
Sporothrix schenckii [46] = experiment: Antifungal activity against Sporothrix schenckii PSSA81 isolate from cutaneous-lymphatic sporotrichosis patient after 72 hrs by Sensititre YeastOne method
Sporothrix schenckii [47] = experiment: Antifungal activity against Sporothrix schenckii P30915 isolate from cutaneous-lymphatic sporotrichosis patient after 72 hrs by ATB Fungus 2 method

SMILES: Nc1nc(=O)[nH]cc1F [FLUCYTOSINE]
- MIC (Sporothrix schenckii [1]): > 64 µg/mL
- MIC (Sporothrix schenckii [2]): 32 µg/mL (≈ 248 µM)
- MIC (Sporothrix schenckii [3]): 16 µg/mL (≈ 124 µM)
- MIC (Sporothrix schenckii [4]): 8 µg/mL (≈ 62 µM)
- MIC (Sporothrix schenckii [5]): 32 µg/mL (≈ 248 µM)
- MIC (Candida parapsilosis [6]): 1 µg/mL (≈ 7.75 µM)
- MIC (Candida parapsilosis [7]): 0.5 µg/mL (≈ 3.87 µM)
- MIC (Sporothrix schenckii [8]): 32 µg/mL (≈ 248 µM)
- MIC (Sporothrix schenckii [9]): 64 µg/mL (≈ 496 µM)
- MIC (Sporothrix schenckii [10]): 64 µg/mL (≈ 496 µM)
- MIC (Sporothrix schenckii [11]): > 64 µg/mL
- MIC (Sporothrix schenckii [12]): 64 µg/mL (≈ 496 µM)
- MIC (Sporothrix schenckii [13]): 1 µg/mL (≈ 7.75 µM)
- MIC (Sporothrix schenckii [14]): 16 µg/mL (≈ 124 µM)
- MIC (Sporothrix schenckii [15]): > 64 µg/mL
- MIC (Sporothrix schenckii [16]): 16 µg/mL (≈ 124 µM)
- MIC (Sporothrix schenckii [17]): 8 µg/mL (≈ 62 µM)
- MIC (Sporothrix schenckii [18]): 8 µg/mL (≈ 62 µM)
- MIC (Pichia kudriavzevii [19]): 32 µg/mL (≈ 248 µM)
- MIC (Pichia kudriavzevii [20]): 16 µg/mL (≈ 124 µM)
- MIC (Sporothrix schenckii [21]): 4 µg/mL (≈ 31 µM)
- MIC (Sporothrix schenckii [22]): > 64 µg/mL
- MIC (Sporothrix schenckii [23]): 64 µg/mL (≈ 496 µM)
- MIC (Sporothrix schenckii [24]): > 64 µg/mL
- MIC (Sporothrix schenckii [25]): > 64 µg/mL
- MIC (Sporothrix schenckii [26]): 16 µg/mL (≈ 124 µM)
- MIC (Pichia kudriavzevii [27]): 32 µg/mL (≈ 248 µM)
- MIC (Candida parapsilosis [28]): 1 µg/mL (≈ 7.75 µM)
- MIC (Sporothrix schenckii [29]): > 64 µg/mL
- MIC50 (Sporothrix schenckii [30]): 16 µg/mL (≈ 124 µM)
- MIC90 (Sporothrix schenckii [30]): 32 µg/mL (≈ 248 µM)
- MIC (Sporothrix schenckii [31]): 8 µg/mL (≈ 62 µM)
- MIC (Sporothrix schenckii [32]): 32 µg/mL (≈ 248 µM)
- MIC50 (Sporothrix schenckii [33]): 64 µg/mL (≈ 496 µM)
- MIC90 (Sporothrix schenckii [33]): > 64 µg/mL
- MIC (Sporothrix schenckii [34]): 8 µg/mL (≈ 62 µM)
- MIC (Sporothrix schenckii [35]): 64 µg/mL (≈ 496 µM)
- MIC (Sporothrix schenckii [36]): 32 µg/mL (≈ 248 µM)
- MIC (Sporothrix schenckii [37]): 8 µg/mL (≈ 62 µM)
- MIC (Sporothrix schenckii [38]): 64 µg/mL (≈ 496 µM)
- MIC (Sporothrix schenckii [39]): 16 µg/mL (≈ 124 µM)
- MIC (Sporothrix schenckii [40]): > 64 µg/mL
- MIC50 (Sporothrix schenckii [41]): > 64 µg/mL
- MIC (Sporothrix schenckii [42]): 64 µg/mL (≈ 496 µM)
- MIC (Sporothrix schenckii [43]): 16 µg/mL (≈ 124 µM)
- MIC (Sporothrix schenckii [44]): 16 µg/mL (≈ 124 µM)
- MIC (Sporothrix schenckii [45]): 16 µg/mL (≈ 124 µM)
- MIC (Sporothrix schenckii [46]): 1 µg/mL (≈ 7.75 µM)
- MIC (Sporothrix schenckii [47]): > 64 µg/mL

SMILES: CC(=O)N1CCN(c2ccc(OCC3COC(Cn4ccnc4)(c4ccc(Cl)cc4Cl)O3)cc2)CC1 (configuration not stated) [KETOCONAZOLE]
- MIC (Sporothrix schenckii [3]): 0.25 µg/mL (≈ 0.47 µM)
- MIC (Sporothrix schenckii [4]): 0.25 µg/mL (≈ 0.47 µM)
- MIC (Sporothrix schenckii [5]): 0.06 µg/mL (≈ 0.113 µM)
- MIC (Candida parapsilosis [6]): 0.125 µg/mL (≈ 0.235 µM)
- MIC (Sporothrix schenckii [13]): 0.125 µg/mL (≈ 0.235 µM)
- MIC (Sporothrix schenckii [14]): 0.125 µg/mL (≈ 0.235 µM)
- MIC (Sporothrix schenckii [16]): 0.25 µg/mL (≈ 0.47 µM)
- MIC (Sporothrix schenckii [17]): 0.25 µg/mL (≈ 0.47 µM)
- MIC (Sporothrix schenckii [18]): 0.125 µg/mL (≈ 0.235 µM)
- MIC (Sporothrix schenckii [26]): 0.5 µg/mL (≈ 0.941 µM)
- MIC (Pichia kudriavzevii [27]): 1 µg/mL (≈ 1.88 µM)
- MIC (Sporothrix schenckii [29]): 0.125 µg/mL (≈ 0.235 µM)
- MIC50 (Sporothrix schenckii [30]): 0.25 µg/mL (≈ 0.47 µM)
- MIC90 (Sporothrix schenckii [30]): 0.5 µg/mL (≈ 0.941 µM)
- MIC (Sporothrix schenckii [31]): 0.25 µg/mL (≈ 0.47 µM)
- MIC (Sporothrix schenckii [32]): 0.25 µg/mL (≈ 0.47 µM)
- MIC (Sporothrix schenckii [36]): 0.125 µg/mL (≈ 0.235 µM)
- MIC (Sporothrix schenckii [37]): 0.125 µg/mL (≈ 0.235 µM)
- MIC (Sporothrix schenckii [39]): 0.5 µg/mL (≈ 0.941 µM)
- MIC (Sporothrix schenckii [43]): 0.5 µg/mL (≈ 0.941 µM)
- MIC (Sporothrix schenckii [44]): 0.125 µg/mL (≈ 0.235 µM)
- MIC (Sporothrix schenckii [45]): 0.06 µg/mL (≈ 0.113 µM)
- MIC (Sporothrix schenckii [46]): 0.06 µg/mL (≈ 0.113 µM)
